Test results taken from patent US11827628B2, “Compositions and methods for inhibition of the JAK pathway” (Rigel Pharmaceuticals, Inc., priority 2005, dated 2023).

test system: up-regulation of ICAM-1 (CD54) by IFNγ in U937 human monocytic cells; test: U937 IFNγ ICAM1 FACS Assay; format: cell-based; conditions: Homo sapiens, U-937, U937 cells stimulated with IFNγ, ICAM-1 expression by FACS; read-out: IC50, Example 44
Procedure, shortened: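 U937 cells in 10% FCS RPMI were preincubated 30 min at 37 °C with an 8-point, 3-fold compound dilution series in duplicate, then stimulated with IFNγ for 18–24 h. Surface ICAM-1 was stained with APC anti-ICAM-1 and read by flow cytometry as geometric mean on live-gated cells. EC50 was derived.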

| IC50 [µM] | SMILES |
| --- | --- |
| 0.838 | CN(C)C(=O)OCCc1ccc(Nc2nc(Nc3cccc(S(N)(=O)=O)c3)ncc2F)cc1 [III-57, N2-(3-Aminosulfonylphenyl)-N4-{4-[2-(dimethylaminocarbonyloxy)ethyl]phenyl}-5-fluoro-2,4-pyrimidinediamine] |
| 0.967 | COc1ccc(Nc2ncc(F)c(Nc3ccc(Cc4ccncc4)cc3)n2)cc1S(N)(=O)=O [III-66, N2-(3-Aminosulfonyl-4-methoxyphenyl)-5-fluoro-N4-[4-(4-pyridinylmethyl)phenyl]-2,4-pyrimidinediamine] |
| 3.33 | Cc1cc(Nc2nc(Nc3cccc(S(N)(=O)=O)c3)ncc2F)ccc1CCC#N [III-20, N2-(3-Aminosulfonylphenyl)-N4-[4-(2-cyanoethyl)-3-methylphenyl]-5-fluoro-2,4-pyrimidinediamine] |
| 0.681 | Cc1ccc(Nc2ncc(F)c(NCCc3ccc(-c4ccncc4)cc3)n2)cc1S(N)(=O)=O [III-77, N2-(3-Aminosulfonyl-4-methylphenyl)-5-fluoro-N4-[4-(4-pyridinyl)phenethyl]-2,4-pyrimidinediamine] |
| 0.935 | Cc1ccc(Nc2ncc(F)c(Nc3ccc(Cc4ccncc4)cc3)n2)cc1S(N)(=O)=O [III-74, N2-(3-Aminosulfonyl-4-methylphenyl)-5-fluoro-N4-[4-(4-pyridinylmethyl)phenyl]-2,4-pyrimidinediamine] |
| 1.59 | NC(=O)OCCc1ccc(Nc2nc(Nc3cccc(S(N)(=O)=O)c3)ncc2F)cc1 [III-54, N4-{4-[2-(Aminocarbonyloxy)ethyl]phenyl}-N2-(3-aminosulfonylphenyl)-5-fluoro-2,4-pyrimidinediamine] |
| 0.339 | Cc1ccc(Nc2ncc(F)c(Nc3ccc(CCC#N)c(Cl)c3)n2)cc1S(N)(=O)=O [III-21, N2-(3-Aminosulfonyl-4-methylphenyl)-N4-[3-chloro-4-(2-cyanoethyl)phenyl]-5-fluoro-2,4-pyrimidinediamine] |
| 2.95 | NS(=O)(=O)c1cccc(Nc2ncc(F)c(NCCc3ccc(-n4ccnc4)cc3)n2)c1 [III-87, N2-(3-Aminosulfonylphenyl)-5-fluoro-N4-[4-(1-imidazolyl)phenethyl]-2,4-pyrimidinediamine] |
| 1.01 | CNC(=O)OCCc1ccc(Nc2nc(Nc3cccc(S(N)(=O)=O)c3)ncc2F)cc1 [III-60, N2-(3-Aminosulfonylphenyl)-5-fluoro-N4-{4-[2-(methylaminocarbonyloxy)ethyl]phenyl}-2,4-pyrimidinediamine] |
| 1.13 | Cc1ccc(Nc2ncc(F)c(Nc3ccc(CCOC(N)=O)cc3)n2)cc1S(N)(=O)=O [III-53, N4-{4-[2-(Aminocarbonyloxy)ethyl]phenyl}-N2-(3-aminosulfonyl-4-methylphenyl)-5-fluoro-2,4-pyrimidinediamine] |
| 0.782 | Cc1ccc(Nc2ncc(F)c(Nc3ccc(CCC#N)c(F)c3)n2)cc1S(N)(=O)=O [III-17, N2-(3-Aminosulfonyl-4-methylphenyl)-5-fluoro-N4-[4-(2-cyanoethyl)-3-fluorophenyl]-2,4-pyrimidinediamine] |

Further lines, the molecule ahead of its results:

| SMILES | IC50 [µM] |
| --- | --- |
| Cc1cnc(Nc2cccc(S(N)(=O)=O)c2)nc1Nc1ccc(OCC(=O)N(C)C)c(F)c1 [Compound I-138, N2-(3-Aminosulfonylphenyl)-N4-(4-dimethylaminocarbonylmethoxy-3-fluorophenyl)-5-methyl-2,4-pyrimidinediamine] | 9.47 |
| Cc1cnc(Nc2ccc(S(N)(=O)=O)cc2)nc1Nc1ccc(OCC(N)=O)cc1 [Compound I-108, N4-(4-Aminocarbonylmethoxyphenyl)-N2-(4-aminosulfonylphenyl)-5-methyl-2,4-pyrimidinediamine] | 3.97 |
| NC(=O)COc1ccc(Nc2nc(Nc3ccc(S(N)(=O)=O)cc3)ncc2F)cc1Cl [Compound I-97, N4-(4-Aminocarbonylmethoxy-3-chlorophenyl)-N2-(4-aminosulfonylphenyl)-5-fluoro-2,4-pyrimidinediamine] | 27.4 |
| Cc1ccc(Nc2ncc(F)c(Nc3ccc(OCC(N)=O)c(Cl)c3)n2)cc1S(N)(=O)=O [Compound I-99, N4-(4-Aminocarbonylmethoxy-3-chlorophenyl)-N2-(3-aminosulfonyl-4-methylphenyl)-5-fluoro-2,4-pyrimidinediamine] | 3.78 |
| Cc1ccc(Nc2ncc(C)c(Nc3ccc(OCC(=O)N(C)C)c(F)c3)n2)cc1S(N)(=O)=O [Compound I-139, N2-(3-Aminosulfonyl-4-methylphenyl)-N4-(4-dimethylaminocarbonylmethoxy-3-fluorophenyl)-5-methyl-2,4-pyrimidinediamine] | 3.26 |
| Cc1cnc(Nc2ccc(S(N)(=O)=O)cc2)nc1Nc1ccc(OCC(=O)N(C)C)c(F)c1 [Compound I-137, N2-(4-Aminosulfonylphenyl)-N4-(4-dimethylaminocarbonylmethoxy-3-fluorophenyl)-5-methyl-2,4-pyrimidinediamine] | 29.6 |
| NC(=O)COc1ccc(Nc2nc(Nc3cccc(S(N)(=O)=O)c3)ncc2F)cc1Cl [Compound I-98, N4-(4-Aminocarbonylmethoxy-3-chlorophenyl)-N2-(3-aminosulfonylphenyl)-5-fluoro-2,4-pyrimidinediamine] | 11 |
| Cc1cc(Nc2nc(Nc3ccc(S(N)(=O)=O)cc3)ncc2F)cc(C)c1N1CCN(C)CC1 [IX-44, N2-(4-Aminosulfonylphenyl)-N4-[3,5-dimethyl-4-(4-methylpiperazin-1-yl]phenyl)-5-fluoro-2,4-pyrimidinediamine] | 2.94 |
| Cc1nnc(COc2ccc(Nc3nc(Nc4ccc(C)c(S(N)(=O)=O)c4)ncc3F)cc2)o1 [Compound I-279, N2-(3-Aminosulfonyl-4-methylphenyl)-5-fluoro-N4-[4-(5-methyl-1,3,4-oxadiazol-2-yl)methoxyphenyl]-2,4-pyrimidinediamine] | 0.918 |
| N#CCOc1ccc(Nc2nc(Nc3ccc(S(N)(=O)=O)cc3)ncc2F)cc1F [Compound I-44, N2-(4-Aminosulfonylphenyl)-N4-(4-cyanomethoxy-3-fluorophenyl)-5-fluoro-2,4-pyrimidinediamine] | 5.07 |
| NS(=O)(=O)c1cccc(Nc2ncc(F)c(Nc3ccc(Oc4cccnc4)cc3)n2)c1 [II-11, N2-(3-Aminosulfonylphenyl)-5-fluoro-N4-[4-(3-pyridyloxy)phenyl]-2,4-pyrimidinediamine] | 0.912 |
| CN(C)C(=O)COc1ccc(Nc2nc(Nc3cccc(S(N)(=O)=O)c3)ncc2F)cc1Cl [Compound I-132, N2-(3-Aminosulfonylphenyl)-N4-(3-chloro-4-dimethylaminocarbonylmethoxyphenyl)-5-fluoro-2,4-pyrimidinediamine] | 2.72 |
| Cc1ccc(Nc2nc(Nc3cccc(S(N)(=O)=O)c3)ncc2F)cc1OCCN1CCOCC1 [Compound I-203, N2-(3-Aminosulfonylphenyl)-5-fluoro-N4-[4-methyl-3-(2-morpholinoethyloxy)phenyl]-2,4-pyrimidinediamine] | 3.13 |
| Cc1cnc(Nc2cccc(S(N)(=O)=O)c2)nc1Nc1ccc(OCC(=O)N(C)C)c(Cl)c1 [Compound I-135, N2-(3-Aminosulfonylphenyl)-N4-(3-chloro-4-dimethylaminocarbonylmethoxyphenyl)-5-methyl-2,4-pyrimidinediamine] | 1.83 |
| Cc1ccc(Nc2ncc(C)c(Nc3ccc(OCC#N)cc3)n2)cc1S(N)(=O)=O [Compound I-59, N2-(3-Aminosulfonyl-4-methylphenyl)-N4-(4-cyanomethoxyphenyl)-5-methyl-2,4-pyrimidinediamine] | 0.0577 |
| Cc1ccc(Nc2nc(Nc3ccc(C)c(S(N)(=O)=O)c3)ncc2F)cc1OCCN1CCOCC1 [Compound I-204, N2-(3-Aminosulfonyl-4-methylphenyl)-5-fluoro-N4-[4-methyl-3-(2-morpholinoethyloxy)phenyl]2,4-pyrimidinediamine] | 3.93 |
| Cc1ccc(Nc2ncc(F)c(Nc3ccc(OCC#N)c(CO)c3)n2)cc1S(N)(=O)=O [Compound I-51, N2-(3-Aminosulfonyl-4-methylphenyl)-N4-(4-cyanomethoxy-3-hydroxymethylphenyl)-5-fluoro-2,4-pyrimidinediamine] | 32.2 |
| COc1cc(Nc2nc(Nc3ccc(S(N)(=O)=O)cc3)ncc2F)cc(OCC#N)c1OC [Compound I-1, N2-(4-Aminosulphonylphenyl)-N4-(3-cyanomethoxy-4,5-dimethoxyphenyl)-5-fluoro-2,4-pyrimidinediamine] | 35.3 |
| Cc1cnc(Nc2cccc(S(N)(=O)=O)c2)nc1Nc1ccc(OCC(N)=O)cc1 [Compound I-109, N4-(4-Aminocarbonylmethoxyphenyl)-N2-(3-aminosulfonylphenyl)-5-methyl-2,4-pyrimidinediamine] | 9.94 |

same assay, conditions: U937 cells stimulated with IFNγ; ICAM-1 expression by FACS; read-out: IC50, Example 44

| IC50 [µM] | SMILES |
| --- | --- |
| 13.6 | NS(=O)(=O)c1cccc(Nc2ncc(F)c(Nc3ccc(CN4CCS(=O)(=O)CC4)cc3)n2)c1 [III-110, N2-(3-Aminosulfonylphenyl)-5-fluoro-N4-{4-[(1,1-dioxothiomorpholin-4-yl-)methyl]phenyl}-2,4-pyrimidinediamine] |
| 0.531 | COc1ccc(Nc2ncc(F)c(Nc3ccc(CN4CCSCC4)cc3)n2)cc1S(N)(=O)=O [III-109, N2-(3-Aminosulfonyl-4-methyoxyphenyl)-5-fluoro-N4-(4-thiomorpholinomethylenephenyl)-2,4-pyrimidinediamine] |
| 5.34 | Cc1ccc(Nc2ncc(F)c(Nc3ccc(CN4CCS(=O)(=O)CC4)cc3)n2)cc1S(N)(=O)=O [III-111, N2-(3-Aminosulfonyl-4-methylphenyl)-5-fluoro-N4-{4-[(1,1-dioxothiomorpholin-4-yl-)methyl]phenyl}-2,4-pyrimidinediamine] |
| 0.492 | Cc1noc(CCc2ccc(Nc3nc(Nc4cccc(S(N)(=O)=O)c4)ncc3F)cc2)n1 [III-106, N2-(3-Aminosulfonylphenyl)-5-fluoro-N4-[4-(3-methyl-1,2,4-oxadiazol-5-yl)ethylenephenyl]-2,4-pyrimidinediamine] |
